Series [1] in a line: PAMPA (parallel artificial membrane permeability assay). It counts as in vitro ADME. The conditions noted are these: PAMPA; membrane permeation rate (Pe); 50 mM MOPSO buffer pH 6.5 with 5.0% glycocholic acid, 37° C., 18 hours; read-out: iPAMPA Pe. A digest of the protocol:
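Artificial membrane was 10% (w/v) egg lecithin plus 0.5% (w/v) cholesterol in dodecane on a PVDF filter. A 10 mM DMSO stock was added at 0.5% (v/v) to donor buffer (50 mM MOPSO, pH 6.5, 5.0% glycocholic acid). After 18 h at 37 °C, LC/MS or LC/UV gave donor and acceptor levels for Pe.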
On the technique in general: The PAMPA barrier holds no transporters, so it reflects passive diffusion.

Series [2] in a line: Metabolic stability in human hepatic microsome. The class given is in vitro ADME. Conditions: microsomes, pH 7.4; human hepatic microsome, NADPH(+); read-out: CL NADPH(+).

Molecules are shown by their SMILES. Starred links: 1 amine or outer side, 2 acyl side, 3 side chain; linkers in the order of their positions; H or OH if unused. Positions of bridges follow the written chain, without caps; N, C: chain ends. Non-standard residues stand in square brackets, D forms with d. Residues, ends and D or L forms follow the SMILES beside them. *: point of attachment. NMeF = CN[C@@H](Cc1ccccc1)C(=O)O; NMeGABA = CN(CCCC(=O)[*:2])[*:1]; NMeβAla = CN(CCC(=O)[*:2])[*:1]; NMeL = CN[C@@H](CC(C)C)C(=O)O; NMeV = CN[C@H](C(=O)O)C(C)C; NMeA = CN[C@@H](C)C(=O)O; Piperidide = C1CCN(*)CC1; dNMeA = CN[C@H](C)C(=O)O; Sar = CNCC(=O)O; tBu = CC(C)(C)*

With `CC(C)C[C@H]1C(=O)N[C@@H](Cc2ccccc2)C(=O)N(C)[C@@H](C(C)C)C(=O)N[C@@H]([C@@H](C)O)C(=O)N[C@H](C(=O)N(C)[C@@H](Cc2ccccc2)C(=O)N(C)[C@@H](Cc2ccccc2)C(=O)N[C@@H](C)C(=O)N2CCCCC2)CC(=O)N(C)[C@@H](C)C(=O)N(C)[C@@H](C)C(=O)N[C@@H](C(C)C)C(=O)N(C)[C@@H](Cc2ccccc2)C(=O)NCC(=O)N1C` [DP-456] ([NMeA][NMeA]V[NMeF]G[NMeL]F[NMeV]TD[NMeF][NMeF]A-Piperidide; lactam N-10), the Papp at 18 hours, 50 µM in series [1] worked out at 41 ×10⁻⁶ cm/s. Further, in series [2], the microsomal CLint at 1 uM was 29 µL/min/mg.

On to `CC(C)[C@@H]1NC(=O)[C@H](C)N(C)C(=O)[C@H](C)N(C)C(=O)[C@H](Cc2ccccc2)N(C)C(=O)CNC(=O)[C@H]([C@@H](C)O)NC(=O)[C@H](C(C)C)N(C)C(=O)[C@H](C)NC(=O)[C@H](C)N(C)C(=O)C[C@@H](C(=O)N(C)[C@@H](Cc2ccccc2)C(=O)N(C)[C@@H](Cc2ccccc2)C(=O)N[C@@H](C)C(=O)N2CCCCC2)NC1=O` [DP-457] ([NMeA]A[NMeV]TG[NMeF][NMeA][NMeA]VD[NMeF][NMeF]A-Piperidide; lactam N-10), for which the Papp at 18 hours, 50 µM in series [1] amounted to 10 ×10⁻⁶ cm/s. Also, in series [2], the microsomal CLint at 1 uM was 14 µL/min/mg.

For the compound `CC(C)C[C@H]1C(=O)N[C@@H](C)C(=O)N(C)[C@@H](C)C(=O)N[C@H](C(=O)N(C)[C@@H](Cc2ccccc2)C(=O)N[C@@H](C)C(=O)N2CCCCC2)CC(=O)N(C)[C@@H](C)C(=O)N(C)[C@@H](C(C)C)C(=O)N(C)[C@@H](C)C(=O)N[C@@H]([C@@H](C)O)C(=O)N(C)[C@@H](C)C(=O)N[C@@H](Cc2ccccc2)C(=O)N1C` [DP-458] ([NMeA][NMeV][NMeA]T[NMeA]F[NMeL]A[NMeA]D[NMeF]A-Piperidide; lactam N-10), in series [1], the Papp at 18 hours, 50 µM amounted to 7.7 ×10⁻⁶ cm/s. In addition, the microsomal CLint at 1 uM in series [2] was determined as 10 µL/min/mg.

With `CC[C@H](C)[C@@H]1NC(=O)[C@H](CC(C)C)N(C)C(=O)CN(C)C(=O)[C@H]([C@@H](C)O)NC(=O)[C@H](C)N(C)C(=O)[C@H](Cc2ccccc2)NC(=O)[C@H](CC(C)C)N(C)C(=O)[C@H](C)N(C)C(=O)C[C@@H](C(=O)N(C)[C@@H](Cc2ccccc2)C(=O)N(C)[C@@H](Cc2ccccc2)C(=O)N[C@@H](C)C(=O)N2CCCCC2)NC(=O)[C@H](C(C)C)N(C)C1=O` [DP-459] ([NMeA][NMeL]F[NMeA]T[Sar][NMeL]I[NMeV]D[NMeF][NMeF]A-Piperidide; lactam N-10), the Papp at 18 hours, 50 µM in series [1] turned out to be 19 ×10⁻⁶ cm/s. The microsomal CLint at 1 uM in series [2] was 143 µL/min/mg.

For the compound `CC(C)[C@@H]1NC(=O)[C@H](C)N(C)C(=O)[C@H](Cc2ccccc2)N(C)C(=O)[C@H](C)N(C)C(=O)[C@H]([C@@H](C)O)NC(=O)[C@H](C)N(C)C(=O)[C@H](C)N(C)C(=O)C[C@@H](C(=O)N(C)[C@@H](Cc2ccccc2)C(=O)N(C)[C@@H](Cc2ccccc2)C(=O)N[C@@H](C)C(=O)N2CCCCC2)NC(=O)[C@H](C)N(C)C(=O)[C@H](C)N(C)C1=O` [DP-460] ([NMeA][NMeA]T[NMeA][NMeF][NMeA]V[NMeA][NMeA]D[NMeF][NMeF]A-Piperidide; lactam N-10), the Papp at 18 hours, 50 µM in series [1] worked out at 5.1 ×10⁻⁶ cm/s. Moreover, the microsomal CLint at 1 uM in series [2] is 17 µL/min/mg.

For the compound `CC(C)C[C@@H]1NC(=O)[C@H](CC(C)C)N(C)C(=O)CCN(C)C(=O)C[C@@H](C(=O)N(C)[C@@H](Cc2ccccc2)C(=O)N[C@@H](C)C(=O)N2CCCCC2)NC(=O)[C@H]([C@@H](C)O)NC(=O)[C@H](CC(C)C)N(C)C(=O)[C@H](Cc2ccccc2)NC(=O)[C@H](Cc2ccccc2)N(C)C(=O)[C@H](CC(C)C)N(C)C1=O` [DP-461] ([NMeβAla][NMeL]L[NMeL][NMeF]F[NMeL]TD[NMeF]A-Piperidide; lactam N-9), in series [1], the Papp at 18 hours, 50 µM was found to be 33 ×10⁻⁶ cm/s. Moreover, the microsomal CLint at 1 uM in series [2] amounted to 78 µL/min/mg.

For the compound `CC(C)C[C@H]1C(=O)N(C)[C@@H](C)C(=O)N[C@@H]([C@@H](C)O)C(=O)N(C)[C@@H](C)C(=O)N[C@H](C(=O)N(C)[C@@H](Cc2ccccc2)C(=O)N[C@@H](C)C(=O)N2CCCCC2)CC(=O)N(C)[C@H](C)C(=O)N(C)[C@@H](Cc2ccccc2)C(=O)N(C)[C@@H](C)C(=O)N[C@@H](C(C)C)C(=O)N1C` [DP-462] ([dNMeA][NMeF][NMeA]V[NMeL][NMeA]T[NMeA]D[NMeF]A-Piperidide; lactam N-9), the Papp at 18 hours, 50 µM in series [1] stood at 9.5 ×10⁻⁶ cm/s. Further, the microsomal CLint at 1 uM in series [2] is 17 µL/min/mg.

Consider `CC(C)C[C@H]1C(=O)N(C)[C@@H](C)C(=O)N[C@H](C(=O)N(C)[C@@H](Cc2ccccc2)C(=O)N(C)[C@@H](Cc2ccccc2)C(=O)N[C@@H](C)C(=O)N2CCCCC2)CC(=O)N(C)[C@H](C)C(=O)N(C)[C@@H](Cc2ccccc2)C(=O)N(C)CC(=O)N[C@@H]([C@@H](C)O)C(=O)N[C@@H](C)C(=O)N(C)[C@@H](C)C(=O)N1C` [DP-463] ([dNMeA][NMeF][Sar]TA[NMeA][NMeL][NMeA]D[NMeF][NMeF]A-Piperidide; lactam N-9), for which the Papp at 18 hours, 50 µM in series [1] was 3.1 ×10⁻⁶ cm/s. Further, the microsomal CLint at 1 uM in series [2] is 10 µL/min/mg.

Take `CC(C)C[C@H]1C(=O)N[C@@H]([C@@H](C)O)C(=O)N(C)[C@@H](C)C(=O)N[C@@H](C(C)C)C(=O)N(C)[C@@H](C)C(=O)N(C)[C@@H](C)C(=O)N[C@H](C(=O)N(C)[C@@H](Cc2ccccc2)C(=O)N(C)[C@@H](Cc2ccccc2)C(=O)N[C@@H](C)C(=O)N2CCCCC2)CC(=O)N(C)[C@@H](C)C(=O)N(C)[C@@H](Cc2ccccc2)C(=O)N1C` [DP-464] ([NMeA][NMeF][NMeL]T[NMeA]V[NMeA][NMeA]D[NMeF][NMeF]A-Piperidide; lactam N-9): the Papp at 18 hours, 50 µM in series [1] was determined as 25 ×10⁻⁶ cm/s. Moreover, the microsomal CLint at 1 uM in series [2] was 30 µL/min/mg.

Regarding `CC(C)C[C@H]1C(=O)N(C)[C@@H](C)C(=O)N[C@@H]([C@@H](C)O)C(=O)N(C)[C@@H](C)C(=O)N(C)[C@@H](C(C)C)C(=O)N[C@@H](COC(C)(C)C)C(=O)N[C@H](C(=O)N2CCCCC2)CC(=O)N(C)CCC(=O)N(C)[C@@H](Cc2ccccc2)C(=O)N[C@@H](C)C(=O)N(C)[C@@H](C)C(=O)N[C@@H](Cc2ccccc2)C(=O)N1C` [DP-465] ([NMeβAla][NMeF]A[NMeA]F[NMeL][NMeA]T[NMeA][NMeV]S(tBu)D-Piperidide; lactam N-12), in series [1], the Papp at 18 hours, 50 µM was 5.1 ×10⁻⁶ cm/s. The microsomal CLint at 1 uM in series [2] amounted to 23 µL/min/mg.

For `CC(C)C[C@@H]1NC(=O)[C@H](CC(C)C)N(C)C(=O)[C@H](Cc2ccccc2)N(C)C(=O)[C@@H](C)N(C)C(=O)C[C@@H](C(=O)N2CCCCC2)NC(=O)[C@H](Cc2ccccc2)N(C)C(=O)[C@H](C)N(C)C(=O)[C@H](C)NC(=O)CN(C)C(=O)[C@H](C)N(C)C(=O)[C@H]([C@@H](C)O)NC(=O)[C@H](C(C)C)N(C)C1=O` [DP-466] ([dNMeA][NMeF][NMeL]L[NMeV]T[NMeA][Sar]A[NMeA][NMeF]D-Piperidide; lactam N-12), in series [1], the Papp at 18 hours, 50 µM came out at 15 ×10⁻⁶ cm/s. In series [2], the microsomal CLint at 1 uM came to 17 µL/min/mg.

Consider `CC(C)C[C@@H]1NC(=O)[C@H](C(C)C)N(C)C(=O)[C@H](C)N(C)C(=O)[C@H](Cc2ccccc2)N(C)C(=O)[C@H](Cc2ccccc2)NC(=O)[C@@H](C)N(C)C(=O)C[C@@H](C(=O)N2CCCCC2)NC(=O)[C@H]([C@@H](C)O)NC(=O)[C@H](C)N(C)C(=O)[C@H](C)N(C)C(=O)[C@H](C)NC(=O)CN(C)C1=O` [DP-467] ([dNMeA]F[NMeF][NMeA][NMeV]L[Sar]A[NMeA][NMeA]TD-Piperidide; lactam N-12), for which the Papp at 18 hours, 50 µM in series [1] was determined as 1.5 ×10⁻⁶ cm/s. In series [2], the microsomal CLint at 1 uM is 12 µL/min/mg.

For `CC[C@H](C)[C@@H]1NC(=O)CCCN(C)C(=O)C[C@@H](C(=O)N2CCCCC2)NC(=O)[C@H](Cc2ccccc2)N(C)C(=O)[C@H](CC(C)C)N(C)C(=O)CN(C)C(=O)[C@H]([C@@H](C)O)NC(=O)[C@H](C)N(C)C(=O)[C@H](C(C)C)N(C)C(=O)[C@H](C)NC(=O)[C@H](CC(C)C)N(C)C(=O)[C@H](Cc2ccccc2)N(C)C1=O` [DP-468] ([NMeGABA]I[NMeF][NMeL]A[NMeV][NMeA]T[Sar][NMeL][NMeF]D-Piperidide; lactam N-12), in series [1], the Papp at 18 hours, 50 µM is 27 ×10⁻⁶ cm/s. Also, the microsomal CLint at 1 uM in series [2] came to 53 µL/min/mg.

As for `CC(C)C[C@@H]1NC(=O)[C@H](Cc2ccccc2)N(C)C(=O)[C@H](C)N(C)C(=O)C[C@@H](C(=O)N2CCCCC2)NC(=O)[C@H](Cc2ccccc2)N(C)C(=O)[C@H](C)N(C)C(=O)[C@H]([C@@H](C)O)NC(=O)CN(C)C(=O)[C@H](C)N(C)C(=O)[C@H](C)NC(=O)[C@H](C(C)C)N(C)C(=O)[C@H](CC(C)C)N(C)C1=O` [DP-469] ([NMeA][NMeF]L[NMeL][NMeV]A[NMeA][Sar]T[NMeA][NMeF]D-Piperidide; lactam N-12), in series [1], the Papp at 18 hours, 50 µM stood at 14 ×10⁻⁶ cm/s. For the same compound, in series [2], the microsomal CLint at 1 uM turned out to be 23 µL/min/mg.

Consider `CC(C)C[C@@H]1NC(=O)[C@H](Cc2ccccc2)N(C)C(=O)[C@H](C)NC(=O)[C@H](C)N(C)C(=O)C[C@@H](C(=O)N2CCCCC2)NC(=O)[C@H]([C@@H](C)O)NC(=O)[C@H](C)N(C)C(=O)[C@H](C)N(C)C(=O)[C@H](Cc2ccccc2)NC(=O)CN(C)C(=O)[C@H](C(C)C)N(C)C(=O)[C@H](C)N(C)C1=O` [DP-470] ([NMeA]A[NMeF]L[NMeA][NMeV][Sar]F[NMeA][NMeA]TD-Piperidide; lactam N-12), for which the Papp at 18 hours, 50 µM in series [1] was 1.2 ×10⁻⁶ cm/s. In addition, the microsomal CLint at 1 uM in series [2] amounted to 11 µL/min/mg.

As to `CC(C)C[C@H]1C(=O)N[C@@H]([C@@H](C)O)C(=O)N(C)CC(=O)N(C)[C@@H](Cc2ccccc2)C(=O)N(C)[C@@H](CC(C)C)C(=O)N(C)[C@@H](Cc2ccccc2)C(=O)N(C)[C@@H](CC(C)C)C(=O)N[C@@H](C)C(=O)N[C@H](C(=O)N2CCCCC2)CC(=O)N(C)CCC(=O)N(C)[C@@H](C)C(=O)N1C` [DP-471] ([NMeβAla][NMeA][NMeL]T[Sar][NMeF][NMeL][NMeF][NMeL]AD-Piperidide; lactam N-11), the Papp at 18 hours, 50 µM in series [1] stood at 21 ×10⁻⁶ cm/s. Further, the microsomal CLint at 1 uM in series [2] stood at 30 µL/min/mg.
